Tests used:
[1] = test system: β-lactamase derepressed mutant (H547) of P. aeruginosa; assay: microbe, parasite or virus in culture; assay type: cell-based; conditions: P. aeruginosa H547; for (B) MIC of Carb when combined with peptide: Carbenicillin with peptide at concentration (A); for MIC A MIC of Peptides: peptide alone; for (A) Peptide doses together with Carb: peptide concentration in combination with Carbenicillin
How it was run: (§1)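 Checkerboard titration in Mueller Hinton broth, peptide against carbenicillin or ciprofloxacin, inoculum 10 μl of 10^−4 dilution of overnight culture, 18-24 h at 37 °C. Combination MIC is the lowest concentration reducing growth >50%. FIC index = A/MIC A + B/MIC B, with ≤~0.5 synergy, 1.0 additivity, >1.0 antagonism.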

[2] = test system: mutant (Nal B, H744) of P. aeruginosa; assay: microbe, parasite or virus in culture; assay type: cell-based; conditions: for (B) MIC of Cipro when combined with peptide: ciprofloxacin with peptide at concentration (A); for (B) MIC of Cipro when combined with peptide / FIC index / (A) Peptide doses together with Cipro: Nal B, H744; for FIC index: peptide + ciprofloxacin; for MIC A MIC of Peptides: peptide alone, P. aeruginosa mutant Nal B, H744 (Table 5); for (A) Peptide doses together with Cipro: peptide concentration in combination with ciprofloxacin
How it was run: as §1

[3] = test system: Pseudomonas aeruginosa strain M2; assay: Protection of neutropenic CD-1 mice challenged with Pseudomonas aeruginosa; assay type: in vivo; parameters: Survival post bacterial challenge, surviving mice: reference not given here; conditions: for Survival (%) post bacterial challenge: PBS 8
How it was run: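 Neutropenia induced by three i.p. cyclophosphamide doses ([…], alternate days); mice then infected i.p. with 200-300 organisms/mouse. Peptides (200 µg/mouse = 8 mg/kg) in buffered citrate given i.p. at 30 min (single) or 30 min and 16 hrs (double) post-challenge; PBS control; mean of 2 experiments.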

[4] = test system: P. aeruginosa; assay: MIC, broth microdilution assay in polypropylene microtiter trays; assay type: cell-based; conditions: average of three separate experiments
How it was run: (§2)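 Each peptide's inhibitory endpoint is based on optical density: absence of any OD change for the chosen duration defines the minimal inhibitory concentration.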

[5] = test system: E. coli; assay: as above; assay type: cell-based; conditions: average of three separate experiments
How it was run: as §2

[6] = test system: S. aureus K147; assay: as above; assay type: cell-based; conditions: average of three separate experiments
How it was run: as §2

[7] = test system: S. aureus; assay: as above; assay type: cell-based; conditions: average of three separate experiments
How it was run: as §2

[8] = test system: P. aeruginosa (H103); assay: Synergy study (checkerboard titration) with hen white lysozyme; assay type: cell-based; conditions: for Lowest [CP] showing synergy: cationic peptide concentration, combined with lysozyme; for Lowest [Lyso] showing synergy: lysozyme concentration, combined with the peptide
[9] = test system: Salmonella typhi; assay: as above; assay type: cell-based; conditions: for Lowest [CP] showing synergy: cationic peptide concentration, combined with lysozyme; for Lowest [Lyso] showing synergy: lysozyme concentration, combined with the peptide
[10] = test system: E. coli; assay: as above; assay type: cell-based; conditions: for Lowest [CP] showing synergy: cationic peptide concentration, combined with lysozyme; for Lowest [Lyso] showing synergy: lysozyme concentration, combined with the peptide
[11] = double dose (200 μg per mouse i.p. at 30 min and 16 hrs), 16 hr
[12] = single dose (200 μg per mouse i.p. at 30 min), 16 hr

CC[C@H](C)[C@H](NC(=O)CNC(=O)[C@@H](NC(=O)[C@H](CCCCN)NC(=O)[C@H](CCCCN)NC(=O)[C@H](Cc1ccccc1)NC(=O)[C@H](CC(C)C)NC(=O)[C@H](CCCCN)NC(=O)[C@H](Cc1c[nH]c2ccccc12)NC(=O)[C@@H](N)CCCCN)[C@@H](C)CC)C(=O)NCC(=O)N[C@@H](C)C(=O)N[C@H](C(=O)N[C@@H](CC(C)C)C(=O)N[C@@H](CCCCN)C(=O)N[C@H](C(=O)N[C@@H](CC(C)C)C(=O)N[C@@H](CCCCN)C(=O)N[C@H](C(=O)N[C@@H](CC(C)C)C(=O)N[C@H](C(=O)N[C@H](C(=O)NCC(=O)N[C@@H](CC(C)C)C(=O)N1CCC[C@H]1C(=O)N[C@@H](C)C(=O)N[C@@H](CC(C)C)C(=O)N[C@@H](CCCCN)C(=O)N[C@@H](CC(C)C)C(=O)N[C@H](C(=O)N[C@@H](CC(C)C)C(=O)N[C@@H](CCCCN)C(=O)O)[C@@H](C)O)[C@@H](C)O)[C@@H](C)O)C(C)C)C(C)C)C(C)C [CM4]
(B) MIC of Carb when combined with peptide [1]: 64 µg/mL | MIC A MIC of Peptides [1]: 4 µg/mL | (A) Peptide doses together with Carb [1]: 1 µg/mL | (B) MIC of Cipro when combined with peptide [2]: .125 µg/mL | FIC index [2]: .75 | MIC A MIC of Peptides [2]: 4 µg/mL | (A) Peptide doses together with Cipro [2]: 1 µg/mL | Survival post bacterial challenge, surviving mice [3, 11]: 14 | Survival post bacterial challenge, surviving mice ([3]; double dose, 24 hr): 14 | Survival post bacterial challenge, surviving mice ([3]; double dose, 41 hr): 7 | Survival post bacterial challenge, surviving mice ([3]; double dose, 48 hr): 2 | Survival post bacterial challenge, surviving mice ([3]; double dose, 64 hr): 2 | Survival (%) post bacterial challenge ([3]; double dose, 64 hr): 14% | Survival post bacterial challenge, surviving mice ([3]; double dose, 72 hr): 2 | Survival (%) post bacterial challenge ([3]; double dose, 72 hr): 14% | Survival post bacterial challenge, surviving mice ([3]; double dose, 96 hr): 2 | Survival (%) post bacterial challenge ([3]; double dose, 96 hr): 14% | Survival post bacterial challenge, surviving mice [3, 12]: 15 | Survival post bacterial challenge, surviving mice ([3]; single dose, 24 hr): 15 | Survival post bacterial challenge, surviving mice ([3]; single dose, 41 hr): 9 | Survival post bacterial challenge, surviving mice ([3]; single dose, 48 hr): 3 | Survival post bacterial challenge, surviving mice ([3]; single dose, 64 hr): 1 | Survival (%) post bacterial challenge ([3]; single dose, 64 hr): 6% | Survival post bacterial challenge, surviving mice ([3]; single dose, 72 hr): 1 | Survival (%) post bacterial challenge ([3]; single dose, 72 hr): 6% | Survival post bacterial challenge, surviving mice ([3]; single dose, 96 hr): 1 | Survival (%) post bacterial challenge ([3]; single dose, 96 hr): 16% | MIC P. aeruginosa [4]: 4 µg/mL | MIC E. coli [5]: 4 µg/mL | MIC S. aureus K147 [6]: 8 µg/mL | MIC S. aureus [7]: 8 µg/mL | FIC for combination of cationic peptide and lysozyme [8]: 0.75 | Lowest [CP] showing synergy [8]: 2.6 µg/mL | Lowest [Lyso] showing synergy [8]: 250 µg/mL | FIC for combination of cationic peptide and lysozyme [9]: 0.50 | Lowest [CP] showing synergy [9]: 2.61 µg/mL | Lowest [Lyso] showing synergy [9]: 7.8 µg/mL | FIC for combination of cationic peptide and lysozyme [10]: 0.07 | Lowest [CP] showing synergy [10]: 1.3 µg/mL | Lowest [Lyso] showing synergy [10]: 7.8 µg/mL

CC[C@H](C)[C@H](NC(=O)CNC(=O)[C@@H](NC(=O)[C@H](CCCCN)NC(=O)[C@H](CCCCN)NC(=O)[C@@H](NC(=O)[C@H](Cc1ccccc1)NC(=O)[C@H](CCCCN)NC(=O)[C@H](CCCCN)NC(=O)[C@H](Cc1c[nH]c2ccccc12)NC(=O)[C@@H](N)CCCCN)[C@@H](C)CC)[C@@H](C)CC)C(=O)NCC(=O)N[C@@H](C)C(=O)N[C@H](C(=O)N[C@@H](CC(C)C)C(=O)N[C@@H](CCCCN)C(=O)N[C@H](C(=O)N[C@@H](CC(C)C)C(=O)N[C@H](C(=O)N[C@H](C(=O)NCC(=O)N[C@@H](CC(C)C)C(=O)N1CCC[C@H]1C(=O)N[C@@H](C)C(=O)N[C@@H](CC(C)C)C(=O)N[C@@H](CCCCN)C(=O)N[C@@H](CC(C)C)C(=O)N[C@H](C(=O)N[C@@H](CCCCN)C(=O)N[C@@H](CCCCN)C(=O)O)[C@@H](C)O)[C@@H](C)O)[C@@H](C)O)C(C)C)C(C)C [CPα2]
(B) MIC of Carb when combined with peptide [1]: 32 µg/mL | FIC index ([1]; peptide + Carbenicillin, about 0.5 or less synergy, 1.0 additivity, >1.0 antagonism): 1.0 | MIC A MIC of Peptides [1]: 2 µg/mL | (A) Peptide doses together with Carb [1]: 1 µg/mL | (B) MIC of Cipro when combined with peptide [2]: .125 µg/mL | FIC index [2]: .75 | MIC A MIC of Peptides [2]: 2 µg/mL | (A) Peptide doses together with Cipro [2]: 1 µg/mL | Survival post bacterial challenge, surviving mice [3, 11]: 13 | Survival post bacterial challenge, surviving mice ([3]; double dose, 24 hr): 13 | Survival post bacterial challenge, surviving mice ([3]; double dose, 41 hr): 12 | Survival post bacterial challenge, surviving mice ([3]; double dose, 48 hr): 9 | Survival post bacterial challenge, surviving mice ([3]; double dose, 64 hr): 6 | Survival (%) post bacterial challenge ([3]; double dose, 64 hr): 46% | Survival post bacterial challenge, surviving mice ([3]; double dose, 72 hr): 6 | Survival (%) post bacterial challenge ([3]; double dose, 72 hr): 46% | Survival post bacterial challenge, surviving mice ([3]; double dose, 96 hr): 5 | Survival (%) post bacterial challenge ([3]; double dose, 96 hr): 38% | Survival post bacterial challenge, surviving mice [3, 12]: 15 | Survival post bacterial challenge, surviving mice ([3]; single dose, 24 hr): 15 | Survival post bacterial challenge, surviving mice ([3]; single dose, 41 hr): 13 | Survival post bacterial challenge, surviving mice ([3]; single dose, 48 hr): 13 | Survival post bacterial challenge, surviving mice ([3]; single dose, 64 hr): 13 | Survival (%) post bacterial challenge ([3]; single dose, 64 hr): 86% | Survival post bacterial challenge, surviving mice ([3]; single dose, 72 hr): 12 | Survival (%) post bacterial challenge ([3]; single dose, 72 hr): 80% | Survival post bacterial challenge, surviving mice ([3]; single dose, 96 hr): 12 | Survival (%) post bacterial challenge ([3]; single dose, 96 hr): 80% | MIC P. aeruginosa [4]: 6 µg/mL | MIC E. coli [5]: 2 µg/mL | MIC S. aureus K147 [6]: 16 µg/mL | MIC S. aureus [7]: 16 µg/mL | FIC for combination of cationic peptide and lysozyme [8]: 0.56 | Lowest [CP] showing synergy [8]: 10.4 µg/mL | Lowest [Lyso] showing synergy [8]: 62.5 µg/mL | FIC for combination of cationic peptide and lysozyme [9]: 0.63 | Lowest [CP] showing synergy [9]: 2.61 µg/mL | Lowest [Lyso] showing synergy [9]: 125 µg/mL | FIC for combination of cationic peptide and lysozyme [10]: 0.31 | Lowest [CP] showing synergy [10]: 0.65 µg/mL | Lowest [Lyso] showing synergy [10]: 7.8 µg/mL

Reference: patent publication US6818407B2, “Anti-endotoxic antimicrobial cationic peptides and methods of use therfor” (priority 1998, dated 2004)
